According to US9181273B2, “Morpholine-spirocyclic piperidine amides as modulators of ion channels” (Vertex Pharmaceuticals Incorporated, priority 2011, dated 2015):

Target: human NaV subtype, like NaV 1.7 (Homo sapiens, UniProt Q15858)
Test: E-VIPR optical membrane potential assay with electrical stimulation
Assay type: cell-based
Conditions: not given

human NaV subtype, like NaV 1.7, sequence (Q15858 whole entry): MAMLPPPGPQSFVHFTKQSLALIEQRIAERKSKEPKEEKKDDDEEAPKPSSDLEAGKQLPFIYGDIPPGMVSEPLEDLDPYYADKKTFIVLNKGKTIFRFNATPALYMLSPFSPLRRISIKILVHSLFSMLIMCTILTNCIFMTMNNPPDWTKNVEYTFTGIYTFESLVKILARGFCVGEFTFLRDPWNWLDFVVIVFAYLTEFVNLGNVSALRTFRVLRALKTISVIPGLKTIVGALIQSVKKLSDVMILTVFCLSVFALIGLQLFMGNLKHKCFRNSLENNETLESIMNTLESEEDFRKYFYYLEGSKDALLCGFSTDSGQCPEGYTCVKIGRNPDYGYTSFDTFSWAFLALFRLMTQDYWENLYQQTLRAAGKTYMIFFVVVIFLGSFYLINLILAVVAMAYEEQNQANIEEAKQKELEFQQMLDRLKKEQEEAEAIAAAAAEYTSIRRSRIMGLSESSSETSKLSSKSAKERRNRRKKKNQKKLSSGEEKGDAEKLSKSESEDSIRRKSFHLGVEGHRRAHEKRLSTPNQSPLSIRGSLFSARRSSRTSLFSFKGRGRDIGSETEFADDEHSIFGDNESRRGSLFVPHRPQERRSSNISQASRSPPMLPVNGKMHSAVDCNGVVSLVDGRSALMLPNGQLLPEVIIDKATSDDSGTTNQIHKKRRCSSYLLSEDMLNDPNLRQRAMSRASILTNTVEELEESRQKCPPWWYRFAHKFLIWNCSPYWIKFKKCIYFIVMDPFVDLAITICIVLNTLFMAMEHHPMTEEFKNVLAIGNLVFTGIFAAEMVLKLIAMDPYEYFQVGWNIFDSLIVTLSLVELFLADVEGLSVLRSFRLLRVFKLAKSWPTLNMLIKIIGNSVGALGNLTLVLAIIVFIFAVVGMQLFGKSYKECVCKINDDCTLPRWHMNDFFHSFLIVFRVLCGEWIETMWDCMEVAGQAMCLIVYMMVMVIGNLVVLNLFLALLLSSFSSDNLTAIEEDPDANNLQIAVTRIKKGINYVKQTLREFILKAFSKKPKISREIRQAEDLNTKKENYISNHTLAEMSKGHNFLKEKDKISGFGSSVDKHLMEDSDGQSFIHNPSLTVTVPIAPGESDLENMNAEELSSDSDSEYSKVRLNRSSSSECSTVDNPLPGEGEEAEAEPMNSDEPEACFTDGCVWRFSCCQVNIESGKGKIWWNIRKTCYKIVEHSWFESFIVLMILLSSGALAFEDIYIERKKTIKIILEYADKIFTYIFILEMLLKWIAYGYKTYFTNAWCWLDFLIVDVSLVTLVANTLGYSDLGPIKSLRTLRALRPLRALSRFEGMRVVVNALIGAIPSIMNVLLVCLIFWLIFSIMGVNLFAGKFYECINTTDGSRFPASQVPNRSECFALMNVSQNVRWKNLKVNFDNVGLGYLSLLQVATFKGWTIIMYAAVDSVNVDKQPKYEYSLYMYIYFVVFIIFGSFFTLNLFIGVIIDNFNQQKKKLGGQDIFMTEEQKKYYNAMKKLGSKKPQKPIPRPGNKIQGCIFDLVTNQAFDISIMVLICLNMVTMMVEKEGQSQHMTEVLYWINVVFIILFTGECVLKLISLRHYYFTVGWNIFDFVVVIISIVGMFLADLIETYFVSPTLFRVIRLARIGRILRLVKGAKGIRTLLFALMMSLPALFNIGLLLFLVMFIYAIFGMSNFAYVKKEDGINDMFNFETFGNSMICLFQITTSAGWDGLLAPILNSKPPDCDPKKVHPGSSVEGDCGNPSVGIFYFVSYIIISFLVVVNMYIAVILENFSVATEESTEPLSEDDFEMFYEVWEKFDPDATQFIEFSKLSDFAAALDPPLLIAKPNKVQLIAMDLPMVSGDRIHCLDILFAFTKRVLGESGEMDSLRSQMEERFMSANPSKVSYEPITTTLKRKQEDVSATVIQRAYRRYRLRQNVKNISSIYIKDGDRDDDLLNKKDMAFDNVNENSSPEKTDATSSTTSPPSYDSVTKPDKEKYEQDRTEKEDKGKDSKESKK

Question: With `COCC1CN(c2ncccn2)CC2(CCN(C(=O)c3ccc(C(C)(C)C)c(OC)c3)CC2)O1` (stereo not drawn) [Compound 191] as the compound, how does the IC50 read?
Answer: < 2 µM

Same assay, conditions: active against one or more sodium channels; assay and NaV subtype not specified for Table 3; read-out: IC50 Binned Activity Data

Question: `CC(C)Oc1ccc(C(=O)N2CCC3(CC2)CN(CC(F)(F)F)CC(c2ccccc2)O3)nc1` (stereo not drawn) [Compound 177] was tested. Which IC50 did it give?
Answer: < 2 µM

Question: How did the IC50 turn out when `COCC1CN(CC(F)F)CC2(CCN(C(=O)c3ccc(OC(C)C)c(C)c3)CC2)O1` (stereo not drawn) [Compound 178] was run?
Answer: < 2 µM

Question: For `Cc1cc(C(=O)N2CCC3(CC2)CN(Cc2ccccc2)CC(C(C)(C)O)O3)ccc1OC(C)C` (stereo not drawn) [Compound 179], which IC50 is on record?
Answer: > 5 µM

Question: With `COCC1CN(c2nccs2)CC2(CCN(C(=O)c3ccc(OC(C)C)c(C)c3)CC2)O1` (stereo not drawn) [Compound 180] as the compound, how does the IC50 read?
Answer: < 2 µM

Question: With `Cc1cc(C(=O)N2CCC3(CC2)CN(CC(F)(F)F)CC(Cn2cccn2)O3)ccc1OC(C)C` (stereo not drawn) [Compound 181] as the compound, how does the IC50 read?
Answer: > 5 µM

Question: `COCC1CN(c2ccc(OC)cc2)CC2(CCN(C(=O)c3ccc(OC(C)C)c(C)c3)CC2)O1` (stereo not drawn) [Compound 183] was tested. Which IC50 did it give?
Answer: < 2 µM

Question: `COCC1CN(CCSC)CC2(CCN(C(=O)c3ccc(OC(C)C)c(C)c3)CC2)O1` (stereo not drawn) [Compound 184] was tested. Which IC50 did it give?
Answer: < 2 µM

Question: How did the IC50 turn out when `CC#CCN1CC2(CCN(C(=O)c3ccc(OC(C)C)c(C)c3)CC2)OCC1(C)C` [Compound 185] was run?
Answer: > 5 µM

Question: `COc1ccc(C(=O)N2CCC3(CC2)CN(CCC(C)C)C(=O)C(c2ccccc2)O3)cc1C(F)(F)F` (stereo not drawn) [Compound 186] was tested. Which IC50 did it give?
Answer: < 2 µM

Question: Which IC50 does the source give for `COCC1CN(c2ncc(F)cn2)CC2(CCN(C(=O)c3ccc(OC(C)C)c(C)c3)CC2)O1` (stereo not drawn) [Compound 187] here?
Answer: < 2 µM

Question: Which IC50 does the source give for `COCCN1CC(COC)OC2(CCN(C(=O)c3ccc(OC(C)C)c(C)c3)CC2)C1` (stereo not drawn) [Compound 188] here?
Answer: 2 to 5 µM

Question: How did the IC50 turn out when `Cc1cc(C(=O)N2CCC3(CC2)CN(CC(F)(F)F)CC(c2ccccc2)O3)ccc1S(C)(=O)=O` (stereo not drawn) [Compound 189] was run?
Answer: < 2 µM

Question: `CC(C)Oc1ccc(C(=O)N2CCC3(CC2)CN(CC(F)F)CC(c2ccccc2Cl)O3)cc1F` (stereo not drawn) [Compound 190] was tested. Which IC50 did it give?
Answer: < 2 µM

Question: For `CCN1CC(c2ccccc2)OC2(CCN(C(=O)c3ccc(OC(C)C)c(OC)c3)CC2)C1` (stereo not drawn) [Compound 192], which IC50 is on record?
Answer: < 2 µM

Question: For `COCC1CN(CC(=O)C(C)(C)C)CC2(CCN(C(=O)c3ccc(OC(C)C)c(C)c3)CC2)O1` (stereo not drawn) [Compound 193], which IC50 is on record?
Answer: < 2 µM

Question: With `CC(C)Oc1ccc(C(=O)N2CCC3(CC2)CN(CC(F)(F)F)CC(c2ccccc2)O3)cc1CO` (stereo not drawn) [Compound 194] as the compound, how does the IC50 read?
Answer: < 2 µM

Question: `Cc1cccc(C2CN(CC(F)F)CC3(CCN(C(=O)c4ccc(OC(C)C)c(F)c4)CC3)O2)n1` (stereo not drawn) [Compound 195] was tested. Which IC50 did it give?
Answer: < 2 µM

Question: With `Cc1cnc(C2CN(CC(F)(F)F)CC3(CCN(C(=O)c4ccc(OC(C)C)c(C)c4)CC3)O2)s1` (stereo not drawn) [Compound 196] as the compound, how does the IC50 read?
Answer: < 2 µM

Question: How did the IC50 turn out when `COCC1CN(c2ncccn2)CC2(CCN(C(=O)c3ccc(C(O)C(C)C)cc3)CC2)O1` (stereo not drawn) [Compound 197] was run?
Answer: 2 to 5 µM

Question: For `COCC1CN(c2ncccn2)CC2(CCN(C(=O)c3ccc(S(=O)(=O)NC4CC4)cc3)CC2)O1` (stereo not drawn) [Compound 198], which IC50 is on record?
Answer: > 5 µM

Question: Which IC50 does the source give for `Cc1cc(C(=O)N2CCC3(CC2)CN(CC(F)(F)F)CC(c2ccccc2)O3)ccc1OCCO` (stereo not drawn) [Compound 199] here?
Answer: 2 to 5 µM

Question: Which IC50 does the source give for `Cc1cc(C(=O)N2CCC3(CC2)CN(CC(F)(F)F)CC(c2ccccc2)O3)ccc1S(=O)(=O)C(C)C` (stereo not drawn) [Compound 200] here?
Answer: < 2 µM

Question: How did the IC50 turn out when `COCC1CN(C2CCCCCC2)CC2(CCN(C(=O)c3ccc(OC(C)C)c(C)c3)CC2)O1` (stereo not drawn) [Compound 201] was run?
Answer: < 2 µM

Question: How did the IC50 turn out when `Cc1cc(C(=O)N2CCC3(CC2)CN(CC(F)F)CC(c2ccc(F)cc2)O3)ccc1S(C)(=O)=O` (stereo not drawn) [Compound 202] was run?
Answer: > 5 µM

Question: How did the IC50 turn out when `CCOc1cc(C(=O)N2CCC3(CC2)CN(CC)CC(c2ccccc2)O3)ccc1CO` (stereo not drawn) [Compound 203] was run?
Answer: 2 to 5 µM

Question: Which IC50 does the source give for `COCC1CN(C2CCCCC2)CC2(CCN(C(=O)c3ccc(OC(C)C)c(C)c3)CC2)O1` (stereo not drawn) [Compound 204] here?
Answer: < 2 µM

Question: Which IC50 does the source give for `CCCN1CC(COC)OC2(CCN(C(=O)c3ccc(OC(C)C)c(C)c3)CC2)C1` (stereo not drawn) [Compound 205] here?
Answer: < 2 µM

Question: Which IC50 does the source give for `COCC1CN(CC2CCCCC2)CC2(CCN(C(=O)c3ccc(OC(C)C)c(C)c3)CC2)O1` (stereo not drawn) [Compound 206] here?
Answer: < 2 µM

Question: Which IC50 does the source give for `COCC1CN(c2ncccn2)CC2(CCN(C(=O)c3ccc(S(=O)(=O)C4CC4)cc3)CC2)O1` (stereo not drawn) [Compound 208] here?
Answer: > 5 µM
